Experimental data from PubChem BioAssay AID624404 (Broad Institute, 2012).
Records with an inconclusive call do not appear.

Test system: D54 LucT luciferase reporter counterscreen, luminescence, 24 h
Assay: luciferase activators in glycosylation-insensitive reporter cells, dose response, counter-screen for N-linked glycosylation inhibitor project, D54 LucT cells, luminescence, cherry pick (AID 624404)

Row | SMILES | AC35 [nM]
1 | Cc1ccnc(NC(=O)CCCOc2cc(=O)n(C)c3ccccc23)c1 | 3220
2 | COc1ccc(-c2oc3cc(O)c(OC)c(O)c3c(=O)c2OC)cc1O | 909
3 | COc1cccc(C(=O)Nc2ncc3c(n2)CC(c2ccc(OC)cc2OC)CC3=O)c1 (centres undefined) | 7610
4 | CC(C)(C)c1ccc(OCc2ccc(C(=O)Nc3cccnc3)o2)cc1 | 519
5 | Cc1cccc(N2CCN(C(=O)c3cc(S(=O)(=O)N4CCCC4)cn3C)CC2)c1C | 33.3
6 | COc1cc(CN2CCc3ccccc3C2)ccc1O | 2000
7 | COc1cc2c(cc1OC)C(c1cccs1)N(C(=O)c1ccncc1)CC2 (centres undefined) | 1700
8 | O=C(C=Cc1ccccc1F)c1ccccc1 | 199
9 | COc1ccccc1NC(=O)/C=C/c1ccc2c(c1)OCO2 | 190
10 | CCn1c2ccccc2c2cc(Nc3cc(C)nc4ncnn34)ccc21 | 420
11 | CC(Nc1nc(-c2cccnc2)nc2ccccc12)c1ccccc1 (centres undefined) | 1050
12 | Cc1cc2nnc(SCC(=O)NCc3ccco3)n2c2ccccc12 | 16600
13 | Cc1ccc2c(c1)C(=O)N1[C@H]3c4cc(C)ccc4OC[C@@H]3[C@H](c3ccccc3)[C@]1(C)C(=O)N2 | 499
14 | Cc1noc(C)c1-c1ccc(C(=O)NCc2cccnc2)c2occc12 | 297
15 | O=C(NCCCn1ccnc1)c1cc(-c2ccccc2)on1 | 1480
16 | COc1cccc(N2CCN(C(=O)c3[nH]c(C)c(C(C)=O)c3C)CC2)c1 | 4890
17 | Cc1cnc(C(=O)Nc2ccc(OC(F)(F)F)cc2)cn1 | 3180
18 | CCc1ccc(OCC(=O)Nc2ccc(-c3cc4ccccc4oc3=O)c(OC)c2)cc1 | 734
19 | Cc1cc(C)nc(/N=C(\N)Nc2ccc(CC(=O)OC(C)C)cc2)n1 | 1680
20 | COc1ccc(/C=N/NC(=O)c2cccc(NC(=O)c3ccccc3Cl)c2)cc1 | 495
21 | O=C(NC1CCCCC1)c1ccc([N+](=O)[O-])o1 | 1370
22 | Cn1c(=O)[nH]c(=O)c2c1nc(N(CCO)Cc1ccccc1)n2CCCc1ccccc1 | 547

Row | SMILES | AC35 [nM]
23 | COc1ccccc1-c1csc(C(NC(C)=O)c2ccc(F)c(F)c2)n1 (centres undefined) | 420
24 | O=C(N/N=C/c1cccnc1)c1cc(-c2ccccc2OCc2ccccc2)n[nH]1 | 2460
25 | COc1ccc(CCn2c(O)c(C=NCc3ccc4c(c3)OCO4)c(=O)[nH]c2=O)cc1OC | 678
26 | COc1cc(-c2coc3c(C(=O)NCc4ccc(OC)c(OC)c4)cccc23)ccc1O | 2800
27 | COc1cccc(C(NC(C)=O)c2nc(-c3ccc(F)cc3OC)cs2)c1 (centres undefined) | 63.3
28 | O=C(CCl)Nc1cccc(S(=O)(=O)NC2=NCCC2)c1 | 1620
29 | CN(CCCNC(=O)CCCOc1cc(=O)n(C)c2ccccc12)Cc1ccccc1 | 5230
30 | Cc1ccc(C(=O)N2CCC(C(=O)Nc3cccc([N+](=O)[O-])c3)CC2)cc1 | 1700
31 | COc1cccc(C(=O)Nc2ccc3c(c2)C(=O)c2ccccc2C3=O)c1 | 121
32 | O=C(/C(=C\c1ccccc1)c1nc2ccccc2[nH]1)c1ccc(Cl)cc1 | 306
33 | CCOC(=O)c1[nH]c(C)c(C(=O)Nc2cc(OC)ccc2OC)c1C | 345
34 | O=C(N/N=C/c1ccccn1)c1sc2ccccc2c1Cl | 93.1
35 | Cc1ccc(C(=O)c2coc3c2C(=O)C(=O)c2ccccc2-3)cc1 | 4050
36 | COCCNC(=O)c1cc(-c2cccs2)on1 | 1020
37 | Oc1ccc(-c2csc(-c3c[nH]c4ccccc34)n2)c(O)c1 | 697
38 | O=C(N/N=C/c1c(-c2ccccc2)[nH]c2ccccc12)c1cccnc1 | 1280
39 | COc1cc(F)ccc1-c1csc(C(NC(C)=O)c2ccc(F)c(F)c2)n1 (centres undefined) | 270
40 | COC(=O)c1ccc2c(=O)n(Cc3ccc(C(=O)NC(C)C)cc3)c(=S)[nH]c2c1 | 4280
41 | NC(=O)CC(NC(=O)Cc1ccc(Br)cc1)c1ccc(NC2CC3CCC2C3)c([N+](=O)[O-])c1 (centres undefined) | 210
42 | NC(=O)CC(NC(=O)Cc1ccc(Br)cc1)c1ccc(NC2CCN(Cc3ccccc3)CC2)c([N+](=O)[O-])c1 (centres undefined) | 983
43 | COC(=O)c1ccc(C(=O)NC2CC(C)(C)Cc3c2cnn3-c2ccc(F)cc2)nc1 (centres undefined) | 3950
44 | CCOC(=O)c1c(C)c(C(=O)Nc2ccc(N(C)C)cc2)c(C)n1CC | 3560

Row | SMILES | AC35 [nM]
45 | Cn1c(=O)n(C)c2cc(S(=O)(=O)N3CCCc4ccccc43)ccc21 | 10200
46 | O=C1Nc2ccccc2/C1=C/c1cnc[nH]1 | 7.09
47 | NC(=O)CC(NC(=O)Cc1ccc(Br)cc1)c1ccc(NC2CCC2)c([N+](=O)[O-])c1 (centres undefined) | 1710
48 | CC(=O)c1sc(Nc2cccc3ccccc23)nc1C | 4070
49 | CCc1ccc(CNC(=O)Cc2ccc(NC(=O)C3=C(C)OCCS3)cc2)cc1 | 320
50 | COc1ccc(S(=O)(=O)N2CCCCC2)cc1NC(=O)c1[nH]c(C)c(C(C)=O)c1C | 621
51 | CCN(c1ccccc1)S(=O)(=O)c1ccc(N)c(OC)c1 | 1820
52 | CCN(CCCNC(=O)CCCOc1cc(=O)n(C)c2ccccc12)Cc1ccccc1 | 510
53 | Cc1c2cnccc2c(C)c2c1oc1ccccc12 | 3320
54 | Cc1cc(-c2nnc3n2N=C(c2ccc(-c4ccccc4)cc2)CS3)n[nH]1 | 1260
55 | O=S(=O)([N-]c1nc2ccccc2nc1-n1cc[n+](Cc2ccccc2)c1)c1ccc(Cl)cc1 | 89.8
56 | COc1cc2c(cc1OC)C(c1ccccc1)N(C(=O)c1cccc(S(C)(=O)=O)c1)CC2 (centres undefined) | 212
57 | COc1cccc(C(=O)Nc2sc3c(c2C#N)CCN(C(C)=O)C3)c1 | 63.5
58 | CC1CN(C(=O)c2cc(-c3ccncc3)nc3ccccc23)CC(C)O1 (centres undefined) | 1720
59 | COc1ccccc1NS(=O)(=O)c1ccc(-c2cc(C)no2)s1 | 18300
60 | CCCCC[C@H](O)/C=C/[C@@H]1[C@@H](C/C=C\CCCC(=O)OC)[C@@H](O)C[C@H]1O | < 1.2
61 | O=C(Nc1cc(=O)[nH]c(=O)[nH]1)c1cc(Cl)ccc1Cl | 3150
62 | CC(=O)Nc1ccc(NC(=O)c2ccc(-c3c(C)noc3C)c3ccoc23)cc1 | 5690
63 | C[C@@]12C(=O)Nc3cc(Cl)ccc3C(=O)N1[C@H]1c3ccccc3OC[C@@H]1[C@@H]2c1ccccc1 | 282
64 | O=C1C=C(c2cccs2)C[C@H](c2ccccc2)[C@H]1n1nnc([N+](=O)[O-])n1 | 208
65 | COc1cccc(C(NC(C)=O)c2nc(-c3ccccc3C)cs2)c1 (centres undefined) | 678
66 | CC(C)(C)S(=O)N1Cc2cc(C(=O)NCC(F)(F)F)nc(-c3cccc(-c4cccc(F)c4)c3)c2[C@@H]1CCO (some centres undefined) | 1780

Row | SMILES | AC35 [nM]
67 | CCCNC(=O)c1cc(-c2ccco2)on1 | 903
68 | O=C(NCCCN1CCOCC1)c1cc(-c2cccs2)on1 | 3630
69 | Cc1ccnc(NC(=O)CN2C(=O)NC(C)(c3ccc4ccccc4c3)C2=O)c1 (centres undefined) | 362
70 | Cc1noc(C)c1-c1ccc(C(=O)NCCc2ccccc2)c2occc12 | 2770
71 | Cc1cc(=O)oc2cc(NC(=O)c3cccc(S(C)(=O)=O)c3)ccc12 | 526
72 | CC(C)C1N=C(c2ccc3c(c2)OCO3)CC(c2ccccc2O)N1 (centres undefined) | 3510
73 | CC1(C)Cc2nc3sc4c(SCC(=O)NCc5ccccc5)ncnc4c3cc2CO1 | 15.7
74 | COc1cc(N=Nc2cccc(S(N)(=O)=O)c2)c2ccccc2c1N | 1660
75 | Cc1ccc(Sc2c(CO)c(-c3ccccc3)nn2C)cc1 | 166
76 | Oc1ccc(C2=NNC(=NCc3ccc4c(c3)OCO4)SC2)c(O)c1 | 3120
77 | CCOC(=O)c1c(C)[nH]c(C(=O)N/N=C/c2ccc(OC)c(OC)c2)c1C | 526
78 | CC(=O)c1c(C)[nH]c(C(=O)Nc2nccs2)c1C | 379
79 | CCOc1ncccc1C(=O)Nc1cc2c(cc1Br)OCCO2 | 169
80 | O=c1cc(-c2ccc(O)cc2)oc2cc(O)c(C3OC(CO)C(O)C(O)C3O)c(O)c12 (centres undefined) | 15.1
81 | Cc1cccn2c(=O)c3cc(C(=O)N4CCC5(CC4)OCCO5)n(C)c3nc12 | 310
82 | O=C(/C=C/c1ccccc1Cl)c1ccc(O)cc1 | 201
83 | Cn1c(=O)[nH]c(=O)c2c1nc(NN)n2CCOc1ccccc1 | 3090
84 | Cc1cccc(N2C(=O)N3[C@H](c4ccc(F)cc4)[C@@H]4C(=O)N(C5CCCCC5)C(=O)[C@@H]4[C@]3(Cc3ccccc3)C2=O)c1 | 541
85 | O=C1NC[C@H](Cc2ccccc2)N(C[C@H]2CCCN2C[C@H](Cc2ccccc2)N2C[C@H](Cc3ccc(O)cc3)N(CCc3ccccc3)C(=O)C2=O)C1=O | 3770
86 | O=C(/C=C/c1ccco1)Nc1nnc(-c2ccco2)s1 | 204
87 | Cc1cccc2c(C(=O)N3CCN(c4ccccc4)CC3)cc(-c3ccncc3)nc12 | 126
88 | Cc1noc(C)c1COc1ccc(C(=O)NNC(=O)c2ccccc2)cc1 | 271

Row | SMILES | AC35 [nM]
89 | O=C1NC(=O)N(Cc2ccccc2)C(=O)/C1=C/C=C/c1ccco1 | 5280
90 | O=C(COc1ccccc1CNCc1ccccc1)Nc1ccccc1 | 890
91 | C[C@@]12C(=O)Nc3cc(Cl)ccc3C(=O)N1[C@H]1c3cc(Cl)ccc3OC[C@@H]1[C@@H]2c1ccccc1 | 1440
92 | O=C(NCCc1ccccc1)c1cc(-c2ccco2)on1 | 1010
93 | O=C(c1cccc(Oc2ccccc2)c1)N1CCN(c2ccccn2)CC1 | 2960
94 | O=C(/C=C/c1cccc(Br)c1)c1ccc2c(c1)OCO2 | 951
95 | COc1ccccc1-c1csc(C(NC(C)=O)c2ccccc2)n1 (centres undefined) | 643
96 | COc1cc(NC(=O)CN2c3cccc4cccc(c34)S2(=O)=O)cc(OC)c1OC | 7530
97 | Cc1nnc2c(NC3CCCCC3)nc3ccccc3n12 | 3510
98 | CCCCn1c(SCc2c(C)noc2C)nc2cc(S(N)(=O)=O)ccc21 | 680
99 | COc1ccc(CCCC(=O)NCc2ccccc2)cc1C | 2780
100 | COc1ccc(NC(=O)C2Cc3c(-c4cccc(C(C)=O)c4)ccnc3O2)cc1 (centres undefined) | 90.9
101 | COc1cccc(Sc2ccccc2/C=N/NC(N)=O)c1 | 3390
102 | COc1ccc(S(=O)(=O)NCc2ccccn2)cc1NC(=O)c1ccccc1C | 3110
103 | Cn1c(SCC(=O)c2ccc(F)cc2)ncc(C(=O)Nc2ccccc2)c1=O | 1690
104 | CC(C)c1ccc(OCc2ccc(C(=O)N3CCCC3)o2)cc1 | 850
105 | CC1CN(C(=O)c2ccc(COc3ccc(C(C)C)cc3)o2)CC(C)O1 (centres undefined) | < 1.2
106 | O=C(Nc1ccccc1)N(CCN1CCOCC1)Cc1ccccc1F | 2370
107 | O=C(N/N=C/c1cccs1)c1cc(-c2cccc3ccccc23)n[nH]1 | 3530
108 | Cc1noc(C)c1COc1cccc(C(=O)OC(C)C(=O)Nc2ccc3c(c2)OCO3)c1 (centres undefined) | 1600
109 | Cc1ccc2nc(-c3ccc(SCC(=O)Nc4nnc(C)s4)nc3)[nH]c2c1 | 22.4
